Like-named read-outs stand apart in the source and are kept apart here. *1 amine or outer side, *2 acyl side, *3 side chain or, on linkers, in order; H or OH if unused. Where a SMILES comes first, the peptide text is derived from it. Side-chain parts run from the residue outwards. [ ]: non-standard residue; d: D form. The star is where a group is joined. αMePhe(2-F) = C[C@](N)(Cc1ccccc1F)C(=O)O; γGlu = O=C(O)[C@H](CCC(=O)[*:2])N[*:1]; C14 diacid = O=C(O)CCCCCCCCCCCCC(=O)*; αMeY = C[C@](N)(Cc1ccc(O)cc1)C(=O)O; αMeL = CC(C)C[C@](C)(N)C(=O)O; Orn = NCCC[C@H](N)C(=O)O; AEEA = NCCOCCOCC(=O)O; Aib = CC(C)(N)C(=O)O
Tests used:
Assay type in all cases: cell-based
[1] = biological target: hGLP-1R (Homo sapiens, UniProt P43220); assay: Functional cAMP formation (HTRF) in HEK-293 clonal cells expressing hGLP-1R, 0.1% bovine casein, without or with 1.0% human serum albumin; design: expressed in transfected cells; conditions: for Emax: 37° C., read-out: hGLP-1R Emax, % ± SEM; for EC50: cAMP, incubated at 37° C., 0.1% bovine casein (no human serum albumin), geometric mean, read-out: hGLP-1R EC50, nM (SEM, n)
hGLP-1R, sequence (P43220 24-463): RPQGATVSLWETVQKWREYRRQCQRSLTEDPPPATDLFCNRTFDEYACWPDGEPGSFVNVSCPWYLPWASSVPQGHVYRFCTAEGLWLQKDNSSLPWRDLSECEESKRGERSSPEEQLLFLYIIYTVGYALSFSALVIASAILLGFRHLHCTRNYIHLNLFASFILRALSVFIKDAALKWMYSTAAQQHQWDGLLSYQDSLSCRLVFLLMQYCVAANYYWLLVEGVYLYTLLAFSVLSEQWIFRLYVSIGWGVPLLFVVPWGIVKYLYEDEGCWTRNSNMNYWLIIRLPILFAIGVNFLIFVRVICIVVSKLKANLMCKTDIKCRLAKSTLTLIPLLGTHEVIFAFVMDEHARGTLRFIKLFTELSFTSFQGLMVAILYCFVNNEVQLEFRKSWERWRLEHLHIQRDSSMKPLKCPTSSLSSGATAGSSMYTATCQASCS
Procedure, shortened: (§1)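 Cells were stimulated with peptide for 30 min at 37° C, then lysed in buffer carrying cAMP-d2 and anti-cAMP Eu3+-cryptate for a competitive HTRF read after at least 60 min at room temperature. The 665/620 nm ratio was converted to nM cAMP against a standard curve.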

[2] = biological target: T1, hGIPR (Homo sapiens, UniProt P48546); assay: Functional cAMP formation (HTRF) in HEK-293 clonal cells expressing hGIPR, 0.1% bovine casein, without or with 1.0% human serum albumin; conditions: for Emax: HEK293, 0.1% bovine casein and 1.0% human serum albumin, 37° C., percent of maximal response to GIP(1-42)NH2, read-out: hGIPR Emax, % ± SEM; for EC50: cAMP, incubated at 37° C., 0.1% bovine casein (no human serum albumin), geometric mean, read-out: hGIPR EC50, nM (SEM, n)
T1 construct: expressed in transfected cells
T1 sequence (P48546 22-466): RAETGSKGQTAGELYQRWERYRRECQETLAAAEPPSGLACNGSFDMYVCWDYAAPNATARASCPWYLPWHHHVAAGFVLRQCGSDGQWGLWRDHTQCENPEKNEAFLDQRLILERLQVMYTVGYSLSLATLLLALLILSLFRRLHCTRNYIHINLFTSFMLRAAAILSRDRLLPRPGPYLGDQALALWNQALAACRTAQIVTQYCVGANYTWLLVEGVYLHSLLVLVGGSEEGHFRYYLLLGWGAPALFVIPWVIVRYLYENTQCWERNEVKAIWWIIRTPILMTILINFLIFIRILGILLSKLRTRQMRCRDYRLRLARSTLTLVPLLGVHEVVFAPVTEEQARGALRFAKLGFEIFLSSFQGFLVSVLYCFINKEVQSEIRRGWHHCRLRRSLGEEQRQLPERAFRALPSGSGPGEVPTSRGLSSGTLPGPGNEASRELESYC
Procedure, shortened: as §1

[3] = biological target: T2, hGCGR (Homo sapiens, UniProt P47871); assay: Functional cAMP formation (HTRF) in HEK-293 clonal cells expressing hGCGR, 0.1% bovine casein, without or with 1.0% human serum albumin; conditions: geometric mean, read-out: hGCGR EC50, nM (SEM, n)
T2 construct: expressed in transfected cells
T2 sequence (P47871 26-477): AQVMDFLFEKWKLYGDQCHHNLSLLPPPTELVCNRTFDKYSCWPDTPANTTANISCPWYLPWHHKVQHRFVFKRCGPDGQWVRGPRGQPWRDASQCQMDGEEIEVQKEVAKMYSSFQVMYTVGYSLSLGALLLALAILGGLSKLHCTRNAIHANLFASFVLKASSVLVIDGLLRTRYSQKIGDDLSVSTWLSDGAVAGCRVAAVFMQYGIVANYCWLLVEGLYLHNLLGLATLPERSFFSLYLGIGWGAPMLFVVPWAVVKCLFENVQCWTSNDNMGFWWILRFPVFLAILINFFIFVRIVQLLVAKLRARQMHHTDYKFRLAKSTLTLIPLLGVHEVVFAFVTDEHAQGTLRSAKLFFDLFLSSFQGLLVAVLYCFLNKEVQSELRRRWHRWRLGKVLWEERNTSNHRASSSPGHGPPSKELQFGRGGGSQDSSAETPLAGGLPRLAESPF
Procedure, shortened: as §1

[4] = 0.1% bovine casein and 1.0% human serum albumin, 37° C.
[5] = cAMP, incubated at 37° C., 0.1% bovine casein (no human serum albumin)

CC[C@H](C)[C@H](NC(=O)[C@H](CCCN)NC(=O)[C@H](CC(=O)O)NC(=O)[C@H](CC(C)C)NC(=O)[C@](C)(CC(C)C)NC(=O)[C@@H](NC(=O)C(C)(C)NC(=O)[C@H](Cc1ccc(O)cc1)NC(=O)[C@H](CC(=O)O)NC(=O)[C@H](CO)NC(=O)[C@@H](NC(=O)[C@](C)(Cc1ccccc1F)NC(=O)[C@@H](NC(=O)CNC(=O)[C@H](CCC(=O)O)NC(=O)C(C)(C)NC(=O)[C@@H](N)Cc1ccc(O)cc1)[C@@H](C)O)[C@@H](C)O)[C@@H](C)CC)C(=O)N[C@@H](C)C(=O)N[C@@H](CCC(N)=O)C(=O)NC(C)(C)C(=O)N[C@@H](CCCCNC(=O)COCCOCCNC(=O)COCCOCCNC(=O)CC[C@H](NC(=O)CCCCCCCCCCCCC(=O)O)C(=O)O)C(=O)N[C@@H](Cc1ccccc1)C(=O)N[C@H](C(=O)N[C@H](CCC(=O)O)C(=O)N[C@@](C)(Cc1ccc(O)cc1)C(=O)N[C@@H](CC(C)C)C(=O)N[C@H](C(=O)N[C@@H](CCCCNC(=O)COCCOCCNC(=O)COCCOCCNC(=O)CC[C@H](NC(=O)CCCCCCCCCCCCC(=O)O)C(=O)O)C(=O)NCC(=O)NCC(=O)N1CCC[C@H]1C(=O)N[C@@H](CO)C(=O)N[C@@H](CO)C(=O)NCC(=O)N[C@@H](C)C(=O)N1CCC[C@H]1C(=O)N1CCC[C@H]1C(=O)N1CCC[C@H]1C(=O)N[C@@H](CO)C(N)=O)[C@@H](C)CC)[C@@H](C)CC [Example 234] (H-Y[Aib]EGT[αMePhe(2-F)]TSDY[Aib]I[αMeL]LD[Orn]IAQ[Aib]K([AEEA-AEEA-γGlu-C14 diacid])FI[dE][αMeY]LIK([AEEA-AEEA-γGlu-C14 diacid])GGPSSGAPPPS-NH2; N-terminus assumed)
Emax ([1]; HEK293, percent of maximal response to GLP-1(7-36)NH2, 0.1% bovine casein, arithmetic mean): 112%
EC50 [1]: 0.319 nM
Emax [2]: 84.4%
EC50 [2]: 0.0182 nM
EC50 [3, 4]: > 9950 nM
EC50 [3, 5]: > 9950 nM

CC[C@H](C)[C@H](NC(=O)[C@H](CCCN)NC(=O)[C@H](CC(=O)O)NC(=O)[C@H](CC(C)C)NC(=O)[C@](C)(CC(C)C)NC(=O)[C@@H](NC(=O)C(C)(C)NC(=O)[C@H](Cc1ccc(O)cc1)NC(=O)[C@H](CC(=O)O)NC(=O)[C@H](CO)NC(=O)[C@@H](NC(=O)[C@](C)(Cc1ccccc1F)NC(=O)[C@@H](NC(=O)CNC(=O)[C@H](CCC(=O)O)NC(=O)C(C)(C)NC(=O)[C@@H](N)Cc1ccc(O)cc1)[C@@H](C)O)[C@@H](C)O)[C@@H](C)CC)C(=O)N[C@@H](C)C(=O)N[C@@H](CCC(N)=O)C(=O)NC(C)(C)C(=O)N[C@@H](CCCCNC(=O)COCCOCCNC(=O)COCCOCCNC(=O)CC[C@H](NC(=O)CCCCCCCCCCCCC(=O)O)C(=O)O)C(=O)N[C@@H](Cc1ccccc1)C(=O)N[C@H](C(=O)N[C@H](CCC(=O)O)C(=O)N[C@@](C)(Cc1ccc(O)cc1)C(=O)N[C@@H](CC(C)C)C(=O)N[C@H](C(=O)N[C@@H](CCC(=O)O)C(=O)NCC(=O)NCC(=O)N1CCC[C@H]1C(=O)N[C@@H](CO)C(=O)N[C@@H](CO)C(=O)NCC(=O)N[C@@H](C)C(=O)N1CCC[C@H]1C(=O)N1CCC[C@H]1C(=O)N1CCC[C@H]1C(=O)N[C@@H](CO)C(=O)N[C@@H](CCCCNC(=O)COCCOCCNC(=O)COCCOCCNC(=O)CC[C@H](NC(=O)CCCCCCCCCCCCC(=O)O)C(=O)O)C(N)=O)[C@@H](C)CC)[C@@H](C)CC [Example 235] (H-Y[Aib]EGT[αMePhe(2-F)]TSDY[Aib]I[αMeL]LD[Orn]IAQ[Aib]K([AEEA-AEEA-γGlu-C14 diacid])FI[dE][αMeY]LIEGGPSSGAPPPSK([AEEA-AEEA-γGlu-C14 diacid])-NH2; N-terminus assumed)
Emax ([1]; HEK293, 0.1% bovine casein and 1.0% human serum albumin, percent of maximal response to GLP-1(7-36)NH2): 152%
EC50 [1]: 0.295 nM
Emax [2]: 92.2%
EC50 [2]: 0.0168 nM
EC50 [3, 4]: > 9950 nM
EC50 [3, 5]: > 9950 nM
